# Reference: patent US6737383B1, “Herbicidal oxadiazolidines” (priority 1999, dated 2004)
# Experiments:
# [1] = tested on: pigweed; test: Test B pre/postemergence pigweed; type: in vivo, Amaranthus retroflexus
# Method in brief: (§1)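 Herbicidal effect was estimated by eye on a ten-point control scale after plants spent twelve to sixteen days in a greenhouse following soil or foliar treatment. Foliar sprays targeted plants at one to four leaves; all doses were formulated in a non-phytotoxic solvent with surfactant.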
# [2] = tested on: velvetleaf; test: Test B pre/postemergence velvetleaf; type: in vivo, Abutilon theophrasti
# Method in brief: as §1
# [3] = tested on: rape; test: Test B pre/postemergence rape; type: in vivo, Brassica napus
# Method in brief: as §1
# [4] = tested on: crabgrass; test: Test B pre/postemergence crabgrass; type: in vivo, Digitaria sanguinalis
# Method in brief: as §1
# [5] = tested on: soybean; test: Test B pre/postemergence soybean; type: in vivo, Glycine max
# Method in brief: as §1
# [6] = tested on: corn; test: Test B pre/postemergence corn; type: in vivo, Zea mays
# Method in brief: as §1
# [7] = tested on: bamyardgrass; test: Test B flood test barnyardgrass; type: in vivo, Echinochloa crus-galli
# Method in brief: (§2)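 Flood test on plants grown to the 2-leaf stage; treated plants kept in greenhouse twelve to sixteen days, then visually rated against controls on a 0 (no effect) to 10 (complete control) scale.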
# [8] = tested on: wild oat; test: Test B pre/postemergence wild oat; type: in vivo, Avena fatua
# Method in brief: as §1
# [9] = tested on: duck salad; test: Test B flood test duck salad; type: in vivo, Heteranthera limosa
# Method in brief: as §2
# [10] = tested on: smallflower flatsedge; test: Test B flood test smallflower flatsedge; type: in vivo, Cyperus difformis
# Method in brief: as §2
# [11] = tested on: sugar beet; test: Test B pre/postemergence sugar beet; type: in vivo, Beta vulgaris
# Method in brief: as §1
# [12] = tested on: morningglory; test: Test B pre/postemergence morningglory; type: in vivo, Ipomoea hederacea
# Method in brief: as §1
# [13] = tested on: wheat; test: Test B pre/postemergence wheat; type: in vivo, Triticum aestivum
# Method in brief: as §1
# [14] = tested on: surinam grass; test: Test B pre/postemergence surinam grass; type: in vivo, Brachiaria decumbens
# Method in brief: as §1
# [15] = tested on: blackgrass; test: Test B pre/postemergence blackgrass; type: in vivo, Alopecurus myosuroides
# Method in brief: as §1
# [16] = tested on: giant foxtail; test: Test B pre/postemergence giant foxtail; type: in vivo, Setaria faberii
# Method in brief: as §1
# [17] = tested on: rice; test: Test B flood test rice; type: in vivo, Oryza sativa
# Method in brief: as §2
# [18] = tested on: purple nutsedge; test: Test B pre/postemergence purple nutsedge; type: in vivo, Cyperus rotundus
# Method in brief: as §1
# [19] = tested on: cocklebur; test: Test B pre/postemergence cocklebur; type: in vivo, Xanthium strumarium
# Method in brief: as §1
# [20] = Postemergence, Rate 62 g/ha, scale 0 to 10, 0 is no effect, 10 is complete control
# [21] = Postemergence, Rate 125 g/ha, scale of 0 to 10 where 0 is no effect and 10 is complete control
# [22] = Preemergence, Rate 62 g/ha, scale of 0 to 10 where 0 is no effect and 10 is complete control
# [23] = Preemergence, Rate 125 g/ha, scale of 0 to 10 where 0 is no effect and 10 is complete control
# [24] = Preemergence, Rate 250 g/ha, scale 0 to 10 (0 no effect, 10 complete control)
# [25] = Preemergence, Rate 500 g/ha, scale of 0 to 10 where 0 is no effect and 10 is complete control
# [26] = Rate 500 g/ha, Postemergence, scale 0 to 10, 0 is no effect, 10 is complete control
# [27] = Postemergence, Rate 250 g/ha, scale of 0 to 10, 0 is no effect, 10 is complete control
# [28] = Rate 62 g/ha, flood test species, Pre-emergence, visual evaluation after twelve to sixteen days
# [29] = Rate 125 g/ha, under heading Pre-emergence, flood test species, visual evaluation after twelve to sixteen days
# [30] = Rate 250 g/ha, Pre-emergence (flood test species), scale 0 to 10, 0 is no effect, 10 is complete control
# [31] = Rate 500 g/ha, Pre-emergence section of Table B, 0 to 10 scale (0 no effect, 10 complete control)
compound,measurement,setting,value
C#CC(C)n1c(=O)on(C(=O)N(c2ccc(F)cc2F)C(C)C)c1=O (racemic) [Compound 657],"Plant response rating, Redroot pigweed",[1]; [20],0
same,Redroot pigweed plant response rating,[1]; [21],2
same,Redroot pigweed plant response rating,[1]; [22],7
same,Redroot pigweed plant response rating,[1]; [23],10
same,"Plant response rating, Redroot pigweed",[1]; [24],10
same,"Plant response rating, Redroot pigweed",[1]; [25],10
same,Redroot pigweed plant response rating,[1]; [26],7
same,"Plant response rating, Velvetleaf",[2]; [20],2
same,Velvetleaf plant response rating,[2]; [21],3
same,Velvetleaf plant response rating,[2]; [22],3
same,Velvetleaf plant response rating,[2]; [23],4
same,"Plant response rating, Velvetleaf",[2]; [24],8
same,"Plant response rating, Velvetleaf",[2]; [25],10
same,Velvetleaf plant response rating,[2]; [26],4
same,"Plant response rating, Rape",[3]; [20],0
same,Rape plant response rating,[3]; [21],2
same,Rape plant response rating,[3]; [22],3
same,Rape plant response rating,[3]; [23],3
same,"Plant response rating, Rape",[3]; [24],10
same,"Plant response rating, Rape",[3]; [25],10
same,Rape plant response rating,[3]; [26],3
same,"Plant response rating, Crabgrass",[4]; [20],3
same,Crabgrass plant response rating,[4]; [21],8
same,Crabgrass plant response rating,[4]; [27],9
same,Crabgrass plant response rating,[4]; [22],3
same,Crabgrass plant response rating,[4]; [23],10
same,"Plant response rating, Crabgrass",[4]; [24],9
same,"Plant response rating, Crabgrass",[4]; [25],9
same,Crabgrass plant response rating,[4]; [26],9
same,"Plant response rating, Soybean",[5]; [20],1
same,Soybean plant response rating,[5]; [21],1
same,Soybean plant response rating,[5]; [22],0
same,Soybean plant response rating,[5]; [23],0
same,"Plant response rating, Soybean",[5]; [25],3
same,"Plant response rating, Corn",[6]; [20],1
same,Corn plant response rating,[6]; [21],1
same,Corn plant response rating,[6]; [27],1
same,Corn plant response rating,[6]; [22],0
same,Corn plant response rating,[6]; [23],1
same,"Plant response rating, Corn",[6]; [25],8
same,Corn plant response rating,[6]; [26],1
same,"Plant response rating, Barnyardgrass (0 to 10 scale, 0 is no effect, 10 is complete control)",[7]; [28],0
same,"Barnyardgrass plant response rating (0 to 10 scale, 0 is no effect, 10 is complete control)",[7]; [29],0
same,Barnyardgrass plant response rating,[7]; [30],0
same,Barnyardgrass plant response rating,[7]; [31],0
same,"Plant response rating, Wild oats",[8]; [20],1
same,Wild oats plant response rating,[8]; [21],2
same,Wild oats plant response rating,[8]; [22],3
same,Wild oats plant response rating,[8]; [23],6
same,"Plant response rating, Wild oats",[8]; [24],8
same,"Plant response rating, Wild oats",[8]; [25],8
same,Wild oats plant response rating,[8]; [26],2
same,"Plant response rating, Ducksalad (0 to 10 scale, 0 is no effect, 10 is complete control)",[9]; [28],0
same,"Ducksalad plant response rating (0 to 10 scale, 0 is no effect, 10 is complete control)",[9]; [29],0
same,Ducksalad plant response rating,[9]; [30],0
same,Ducksalad plant response rating,[9]; [31],0
same,"Plant response rating, S. Flatsedge (0 to 10 scale, 0 is no effect, 10 is complete control)",[10]; [28],0
same,"S. Flatsedge plant response rating (0 to 10 scale, 0 is no effect, 10 is complete control)",[10]; [29],0
same,S. Flatsedge plant response rating,[10]; [30],0
same,S. Flatsedge plant response rating,[10]; [31],0
same,"Plant response rating, Sugarbeets",[11]; [20],0
same,Sugarbeets plant response rating,[11]; [21],0
same,Sugarbeets plant response rating,[11]; [22],7
same,Sugarbeets plant response rating,[11]; [23],7
same,"Plant response rating, Sugarbeets",[11]; [24],10
same,"Plant response rating, Sugarbeets",[11]; [25],9
same,Sugarbeets plant response rating,[11]; [26],3
same,"Plant response rating, Morningglory",[12]; [20],2
same,Morningglory plant response rating,[12]; [21],5
same,Morningglory plant response rating,[12]; [27],5
same,Morningglory plant response rating,[12]; [22],1
same,Morningglory plant response rating,[12]; [23],1
same,"Plant response rating, Morningglory",[12]; [24],4
same,"Plant response rating, Morningglory",[12]; [25],6
same,Morningglory plant response rating,[12]; [26],9
same,"Plant response rating, Wheat",[13]; [20],0
same,Wheat plant response rating,[13]; [21],0
same,Wheat plant response rating,[13]; [22],0
same,Wheat plant response rating,[13]; [23],0
same,"Plant response rating, Wheat",[13]; [24],0
same,"Plant response rating, Wheat",[13]; [25],7
same,Wheat plant response rating,[13]; [26],5
same,"Plant response rating, B. signalgrass",[14]; [20],0
same,"Plant response rating, B. signalgrass",[14]; [21],2
same,B. signalgrass plant response rating,[14]; [27],4
same,B. signalgrass plant response rating,[14]; [22],2
same,B. signalgrass plant response rating,[14]; [23],8
same,"Plant response rating, B. signalgrass",[14]; [24],9
same,"Plant response rating, B. signalgrass",[14]; [25],10
same,B. signalgrass plant response rating,[14]; [26],6
same,"Plant response rating, Blackgrass",[15]; [20],6
same,Blackgrass plant response rating,[15]; [21],8
same,Blackgrass plant response rating,[15]; [27],8
same,Blackgrass plant response rating,[15]; [22],5
same,Blackgrass plant response rating,[15]; [23],9
same,"Plant response rating, Blackgrass",[15]; [24],7
same,"Plant response rating, Blackgrass",[15]; [25],9
same,Blackgrass plant response rating,[15]; [26],8
same,"Plant response rating, Giant foxtail",[16]; [20],5
same,Giant foxtail plant response rating,[16]; [21],8
same,Giant foxtail plant response rating,[16]; [27],7
same,Giant foxtail plant response rating,[16]; [22],10
same,Giant foxtail plant response rating,[16]; [23],10
same,"Plant response rating, Giant foxtail",[16]; [24],9
same,"Plant response rating, Giant foxtail",[16]; [25],9
same,Giant foxtail plant response rating,[16]; [26],8
same,"Plant response rating, Rice (0 to 10 scale, 0 is no effect, 10 is complete control)",[17]; [28],0
same,"Rice plant response rating (0 to 10 scale, 0 is no effect, 10 is complete control)",[17]; [29],0
same,Rice plant response rating,[17]; [30],0
same,Rice plant response rating,[17]; [31],0
same,Nutsedge plant response rating,[18]; [21],3
same,Nutsedge plant response rating,[18]; [22],0
same,Nutsedge plant response rating,[18]; [23],0
same,"Plant response rating, Nutsedge",[18]; [24],5
same,"Plant response rating, Nutsedge",[18]; [25],6
same,"Plant response rating, Cocklebur",[19]; [20],0
same,Cocklebur plant response rating,[19]; [21],2
same,Cocklebur plant response rating,[19]; [27],4
same,Cocklebur plant response rating,[19]; [22],0
same,Cocklebur plant response rating,[19]; [23],0
same,"Plant response rating, Cocklebur",[19]; [24],2
same,"Plant response rating, Cocklebur",[19]; [25],2
same,Cocklebur plant response rating,[19]; [26],5
